Experimental data published in paper PMC8010149, “A Therapeutic Strategy to Combat HIV-1 Latently Infected Cells With a Combination of Latency-Reversing Agents Containing DAG-Lactone PKC Activators” (Frontiers in Microbiology, 2021).
pEC50: −log10 of the molar value.

What was measured:
Assay type in all cases: cell-based
[1] = test system: HIV-1 latently infected ACH-2 cells; test: HIV-1 latency reversal, p24 antigen in supernatant, ACH-2 cells; conditions: Human immunodeficiency virus 1, ACH-2, 48 h
Method: The reactivation of HIV-1 from latently infected cells was determined by intracellular p24 protein expression and quantification of p24 antigen in the supernatant (ACH-2 and U1 cells), or by changes in intracellular green fluorescent protein (GFP) expression (J-Lat 10.6 cells). J-Lat ([Jordan et al., 2003]), ACH-2, or U1 cells (5 × 10^5 cells/ml) were seeded in 96-well plates and incubated with different drug concentrations for 24 h to collect the cells. The supernatant was collected after 48 h. The increase in supernatant p24 antigen levels was measured using a Lumipulse G1200 (FUJIREBIO, Tokyo, Japan). J-Lat cells (5 × 10^5 cells/ml) were placed in 48-well plates and incubated with different drug concentrations for 24 h. Intracellular p24 protein expression and GFP-positive cells were analyzed by flow cytometry.

[2] = test system: HIV-1 in CD4+ T cells from HIV-1-infected individuals; test: Ex vivo reactivation, intracellular HIV-1 mRNA in primary CD4+ T cells from HIV-1-infected individuals; conditions: 10 μM YSE028, 24 h, seven individuals
Method: Primary cells were isolated from seven HIV-1^+ individuals, and ex vivo reactivation experiments were conducted as previously described ([Matsuda et al., 2019]). In brief, peripheral blood samples were collected from HIV-1-infected participants receiving cART for at least 5 years (Table 1). All subjects maintained a low viral load (<20 copies/ml, except for occasional “blips”) during therapy. CD4^+ T cell counts in peripheral blood samples ranged from 477 to 992 cells/mm^3 (average: 631 cells/mm^3), and plasma viral loads were <20 copies/ml (except for one participant whose viral load was 22 copies/ml) as measured by quantitative PCR (qPCR; COBAS AmpliPrep/COBAS TaqMan HIV-1 Test version 2.0; Roche Diagnostics, Basel, Switzerland) at the time of study enrollment. The Ethics Committee at the National Center for Global Health and Medicine approved this study (NCGM-G-002259-00), and each patient provided written informed consent. […] The number of HIV-1 RNA copies was calculated using a standard curve obtained from serially diluted HIV-1pNL4-3 plasmid, and normalized values [HIV-1 RNA copies/input RNA (ng)] for each drug were compared to those without drug treatment. The relative increase in HIV-1 RNA levels in the presence of each drug or combination was then determined.

ACH-2 cells = test: Active caspase-3 by flow cytometry in ACH-2 cells; conditions: 10 µM, 24 h
Method: (§1) The amount of intracellular HIV-1 p24 and the active form of caspase-3 were determined by flow cytometry, as previously described ([Matsuda et al., 2015], [2019]). In brief, ACH-2 and U1 cells (2.5 × 10^5 cells/ml) were fixed with 1% paraformaldehyde/PBS for 20 min and permeabilized with Flow Cytometry Perm Buffer (TONBO Biosciences, San Diego, CA, United States). After 5 min of incubation at room temperature, the cells were stained with FITC anti-HIV-1 p24 (24-4) monoclonal antibody (mAb; Santa Cruz Biotechnology, Dallas, TX, United States) or Alexa Fluor 647-conjugated anti-active caspase-3 (C92-605) mAb (BD Pharmingen, San Diego, CA, United States) for 30 min on ice. For T cell activation and exhaustion marker staining, PBMCs from healthy donors separated by the above density gradient centrifugation method were incubated with fixable viability stain Ghost Dye 780 (TONBO Biosciences) for 30 min on ice. […] Next, the cells were analyzed using BD FACSVerse (BD Biosciences). […] The collected data were analyzed using FlowJo software (Tree Star, San Carlos, CA, United States).

U1 cells = test: Active caspase-3 by flow cytometry in U1 cells; conditions: 10 µM, 24 h
Method: as §1

## CCCC(CCC)C(=O)OCC1(CO)CC(=C(C)C)C(=O)O1 (stereo not shown) [YSE028]
[1]
  pEC50: 6.06
[2]
  HIV-1 mRNA compared to no drug control: 1.66 fold
ACH-2 cells
  caspase-3 activation: 17.85%
U1 cells
  caspase-3 activation: 22.7%
